Measured values: PubChem BioAssay AID1918936 (Molecular Pharmacology Branch, DTP, NCI, 2023)

Tested on: 349418-098-R-PDC complex spheroid viability
Assay: Anticancer human tumor 349418-098-R-PDC patient-derived lung adenocarcinoma cell line growth inhibition
Details: for IC50: curve of first compound; for viability, T/C: stronger effect = lower value
Method in brief: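 Drug combinations with the LSD1 inhibitor iadademstat tested on tumor cells co-cultured as spheroids with endothelial cells and mesenchymal stem cells. Concentrations descended in half-log increments from clinical Cmax or 10 microM.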

[1] = second compound 0.1 µM, first compound 0.0316 µM
[2] = second compound 0.1 µM, first compound 0.1 µM
[3] = second compound 0.1 µM, first compound 0.316 µM
[4] = second compound 0.1 µM, first compound 1 µM
[5] = second compound 0.316 µM, first compound 0.0316 µM
[6] = second compound 0.316 µM, first compound 0.1 µM
[7] = second compound 0.316 µM, first compound 0.316 µM
[8] = second compound 0.316 µM, first compound 1 µM
[9] = second compound 1 µM, first compound 0.0316 µM
[10] = second compound 1 µM, first compound 0.1 µM
[11] = second compound 1 µM, first compound 0.316 µM
[12] = second compound 1 µM, first compound 1 µM
[13] = second compound 3.16 µM, first compound 0.0316 µM
[14] = second compound 3.16 µM, first compound 0.1 µM
[15] = second compound 3.16 µM, first compound 0.316 µM
[16] = second compound 3.16 µM, first compound 1 µM
[17] = second compound 10 µM, first compound 0.0316 µM
[18] = second compound 10 µM, first compound 0.1 µM
[19] = second compound 10 µM, first compound 0.316 µM
[20] = second compound 10 µM, first compound 1 µM
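Further: spheroids exposed to agents for seven days before readout.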
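Wherever viability, T/C is given: 100% = DMSO vehicle control wells.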

Molecule COc1ccc([C@@H](O)c2cc(-c3ncnc4cc(N5CCOCC5)ccc34)c(F)cc2Cl)nn1 + NC1CC1c1ccc(-c2cccc(O)c2)cc1 has an IC50 (second compound 0.1 µM) of 696 nM, an IC50 (second compound 0.316 µM) of 741 nM and an IC50 (second compound 1 µM) of 644 nM. For the same molecule, the IC50 (second compound 3.16 µM) was 547 nM, the IC50 (second compound 10 µM) was 185 nM and the viability, T/C [1] was 96.6%. For the same molecule, the viability, T/C [2] was 88.1%, the viability, T/C [3] was 71.4% and the viability, T/C [4] was 42.1%. For the same molecule, the viability, T/C (second compound 0.1 µM, first compound 3.16 µM) was 10.1%, the viability, T/C (second compound 0.1 µM, first compound 10 µM) was 3.99% and the viability, T/C [5] was 104%. It also gave a viability, T/C [6] of 93.8%, a viability, T/C [7] of 87.7% and a viability, T/C [8] of 36.8%. For the same molecule, the viability, T/C (second compound 0.316 µM, first compound 3.16 µM) was 8.34%, the viability, T/C (second compound 0.316 µM, first compound 10 µM) was 3.86% and the viability, T/C [9] was 106%. For the same molecule, the viability, T/C [10] was 91.9%, the viability, T/C [11] was 75% and the viability, T/C [12] was 36.2%. For the same molecule, the viability, T/C (second compound 1 µM, first compound 3.16 µM) was 7.37%, the viability, T/C (second compound 1 µM, first compound 10 µM) was 4.08% and the viability, T/C [13] was 94.8%. For the same molecule, the viability, T/C [14] was 83.5%, the viability, T/C [15] was 67.9% and the viability, T/C [16] was 32.1%. For the same molecule, the viability, T/C (second compound 3.16 µM, first compound 3.16 µM) was 6.81%, the viability, T/C (second compound 3.16 µM, first compound 10 µM) was 4.07% and the viability, T/C [17] was 71.7%. It also gave a viability, T/C [18] of 62.7%, a viability, T/C [19] of 38.1% and a viability, T/C [20] of 21.9%. The viability, T/C (second compound 10 µM, first compound 3.16 µM) was 4.81% and the viability, T/C (second compound 10 µM, first compound 10 µM) was 3.46%.

Work on Nc1ncn(C2CC(O)C(CO)S2)c(=O)n1 (stereo not given) + NC1CC1c1ccc(-c2cccc(O)c2)cc1 yielded an IC50 (second compound 0.1 µM) of 25 nM, an IC50 (second compound 0.316 µM) of 23.9 nM and an IC50 (second compound 1 µM) of 27.9 nM. The IC50 (second compound 3.16 µM) was 27.1 nM, the IC50 (second compound 10 µM) was 19.5 nM and the viability, T/C (second compound 0.1 µM, first compound 0.000949 µM) was 113%. The viability, T/C (second compound 0.1 µM, first compound 0.003 µM) was 112%, the viability, T/C (second compound 0.1 µM, first compound 0.00949 µM) was 87.1% and the viability, T/C (second compound 0.1 µM, first compound 0.03 µM) was 42.6%. The viability, T/C (second compound 0.1 µM, first compound 0.0949 µM) was 15.4%, the viability, T/C (second compound 0.1 µM, first compound 0.3 µM) was 5.99% and the viability, T/C (second compound 0.316 µM, first compound 0.000949 µM) was 112%. The viability, T/C (second compound 0.316 µM, first compound 0.003 µM) was 106%, the viability, T/C (second compound 0.316 µM, first compound 0.00949 µM) was 93% and the viability, T/C (second compound 0.316 µM, first compound 0.03 µM) was 39%. The viability, T/C (second compound 0.316 µM, first compound 0.0949 µM) was 12.2%, the viability, T/C (second compound 0.316 µM, first compound 0.3 µM) was 6.04% and the viability, T/C (second compound 1 µM, first compound 0.000949 µM) was 117%. It also gave a viability, T/C (second compound 1 µM, first compound 0.003 µM) of 107%, a viability, T/C (second compound 1 µM, first compound 0.00949 µM) of 96.8% and a viability, T/C (second compound 1 µM, first compound 0.03 µM) of 46.3%. For the same molecule, the viability, T/C (second compound 1 µM, first compound 0.0949 µM) was 13.5%, the viability, T/C (second compound 1 µM, first compound 0.3 µM) was 5.81% and the viability, T/C (second compound 3.16 µM, first compound 0.000949 µM) was 115%. For the same molecule, the viability, T/C (second compound 3.16 µM, first compound 0.003 µM) was 115%, the viability, T/C (second compound 3.16 µM, first compound 0.00949 µM) was 96.3% and the viability, T/C (second compound 3.16 µM, first compound 0.03 µM) was 44.6%. The viability, T/C (second compound 3.16 µM, first compound 0.0949 µM) was 17.3%, the viability, T/C (second compound 3.16 µM, first compound 0.3 µM) was 6.89% and the viability, T/C (second compound 10 µM, first compound 0.000949 µM) was 87.2%. It also gave a viability, T/C (second compound 10 µM, first compound 0.003 µM) of 81.6%, a viability, T/C (second compound 10 µM, first compound 0.00949 µM) of 75.4% and a viability, T/C (second compound 10 µM, first compound 0.03 µM) of 34.5%. It also gave a viability, T/C (second compound 10 µM, first compound 0.0949 µM) of 14.5% and a viability, T/C (second compound 10 µM, first compound 0.3 µM) of 5.54%.

Work on O=C(C=Cn1cnc(-c2cc(C(F)(F)F)cc(C(F)(F)F)c2)n1)NNc1cnccn1 + NC1CC1c1ccc(-c2cccc(O)c2)cc1 yielded an IC50 (second compound 0.1 µM) of under 3.16 nM, an IC50 (second compound 0.316 µM) of under 3.16 nM and an IC50 (second compound 1 µM) of under 3.16 nM. For the same molecule, the IC50 (second compound 3.16 µM) was under 3.16 nM, the IC50 (second compound 10 µM) was under 3.16 nM and the viability, T/C (second compound 0.1 µM, first compound 0.00316 µM) was 21.7%. The viability, T/C (second compound 0.1 µM, first compound 0.01 µM) was 13.6%, the viability, T/C [1] was 8.69% and the viability, T/C [2] was 4.58%. The viability, T/C [3] was 3.21%, the viability, T/C [4] was 2.82% and the viability, T/C (second compound 0.316 µM, first compound 0.00316 µM) was 23%. It also gave a viability, T/C (second compound 0.316 µM, first compound 0.01 µM) of 13.6%, a viability, T/C [5] of 7.36% and a viability, T/C [6] of 4.45%. The viability, T/C [7] was 3.04%, the viability, T/C [8] was 2.89% and the viability, T/C (second compound 1 µM, first compound 0.00316 µM) was 21.3%. It also gave a viability, T/C (second compound 1 µM, first compound 0.01 µM) of 11.7%, a viability, T/C [9] of 7.13% and a viability, T/C [10] of 3.94%. It also gave a viability, T/C [11] of 2.88%, a viability, T/C [12] of 2.59% and a viability, T/C (second compound 3.16 µM, first compound 0.00316 µM) of 22.3%. The viability, T/C (second compound 3.16 µM, first compound 0.01 µM) was 16.3%, the viability, T/C [13] was 7.41% and the viability, T/C [14] was 5%. It also gave a viability, T/C [15] of 3.23%, a viability, T/C [16] of 2.75% and a viability, T/C (second compound 10 µM, first compound 0.00316 µM) of 11.5%. For the same molecule, the viability, T/C (second compound 10 µM, first compound 0.01 µM) was 11.2%, the viability, T/C [17] was 7.71% and the viability, T/C [18] was 5.06%. For the same molecule, the viability, T/C [19] was 2.95% and the viability, T/C [20] was 2.62%.
